Data from patent publication US7388005B2, “Substituted 2-pyrimidinyl-6,7,8,9-tetrahydropyrimido[1,2-a]pyrimidin-4-one and 7-pyrimidinyl-2,3-dihydroimidazo [1,2-a]pyrimidin-5(1H)one derivatives for neurodegenerative disorders” (Sanofi-Aventis, priority 2001, dated 2008).

How the values were obtained:
GSK3β = GSK3β (Homo sapiens, UniProt P49841); experiment: Inhibitory activity against GSK3β (TPK1), 33P-ATP phosphorylation of prephosphorylated GS1 peptide; type: biochemical
Description: Two different protocols can be used.
In a first protocol: 7.5 μM of prephosphorylated GS1 peptide and 10 μM ATP (containing 300,000 cpm of 33P-ATP) were incubated in 25 mM Tris-HCl, pH 7.5, 0.6 mM DTT, 6 mM MgCl2, 0.6 mM EGTA, 0.05 mg/ml BSA buffer for 1 hour at room temperature in the presence of GSK3β (total reaction volume: 100 microliters).
In a second protocol: 4.1 μM of prephosphorylated GS1 peptide and 42 μM ATP (containing 260,000 cpm 33P-ATP) were incubated in 80 mM Mes-NaOH, pH 6.5, 1 mM Mg acetate, 0.5 mM EGTA, 5 mM 2-mercaptoethanol, 0.02% Tween 20, 10% glycerol buffer for 2 hours at room temperature in the presence of GSK3β. Inhibitors were solubilised in DMSO (final solvent concentration in the reaction medium, 1%).
(§1) The reaction was stopped with 100 microliters of a solution made of 25 g polyphosphoric acid (85% P2O5), 126 ml 85% H3PO4, H2O to 500 ml and then diluted to 1:100 before use. An aliquot of the reaction mixture was then transferred to Whatman P81 cation exchange filters and rinsed with the solution described above. Incorporated 33P radioactivity was determined by liquid scintillation spectrometry.
The phosphorylated GS-1 peptide had the following sequence: NH2-[…](P)EDEE-COOH.
The GSK3β inhibitory activity of the compounds of the present invention are expressed in IC50, and as an illustration the range of IC50's of the compounds in table 1 is between 2 nanomolar to 2 micromolar concentrations, of the compounds in table 2 is between 30 nanomolar to 2 micromolar concentrations and of the compounds in table 3 is between 1 nanomolar to 2 micromolar concentrations.

cdk5/p25 = cdk5/p25 (Homo sapiens, UniProt Q00535); experiment: Inhibitory activity against cdk5/p25 (TPK2), 33P-ATP phosphorylation of Histone H1; type: biochemical
Chain of cdk5/p25 (Q00535 whole entry, species assumed): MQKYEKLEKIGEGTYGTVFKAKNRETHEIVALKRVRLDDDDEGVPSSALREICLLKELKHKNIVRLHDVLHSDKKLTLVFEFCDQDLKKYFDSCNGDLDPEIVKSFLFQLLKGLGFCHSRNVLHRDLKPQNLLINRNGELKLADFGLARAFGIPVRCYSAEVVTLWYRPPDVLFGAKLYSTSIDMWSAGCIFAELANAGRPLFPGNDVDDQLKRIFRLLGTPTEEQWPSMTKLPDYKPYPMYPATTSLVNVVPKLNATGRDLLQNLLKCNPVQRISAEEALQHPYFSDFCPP
Chain of cdk5/p25 (Q15078 99-307 partner limits assumed, species assumed): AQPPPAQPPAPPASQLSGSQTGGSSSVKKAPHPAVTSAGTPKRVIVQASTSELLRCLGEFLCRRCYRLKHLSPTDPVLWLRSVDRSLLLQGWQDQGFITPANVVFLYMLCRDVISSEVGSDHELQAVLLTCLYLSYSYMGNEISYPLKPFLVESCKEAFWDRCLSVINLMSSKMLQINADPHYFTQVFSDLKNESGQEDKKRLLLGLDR
Description: The following protocol may be used:
0.4 mg/ml Histone H1 and 10 μM ATP (containing 300,000 cpm of ^33P-ATP) were incubated in 50 mM Hepes, pH 7.2, 1 mM DTT, 1 mM MgCl2, 1 mM EGTA, 0.02% Tween 20 buffer for 1 hour at room temperature in the presence of cdk5/p25 (total reaction volume: 100 microliters).
Inhibitors were solubilised in DMSO (final solvent concentration in the reaction medium, 1%).
as §1, with “solution” for “solution made”, “(diluted” for “and then diluted”, “use).” for “use.”, “^33P” for “33P”
The cdk5/p25 inhibitory activity of the compounds of the present invention are expressed as IC50 values. Typically, 3-fold serial dilutions of the inhibitor over at least a 1000-fold concentration range are used.

Chain of GSK3β (P49841 whole entry, species assumed): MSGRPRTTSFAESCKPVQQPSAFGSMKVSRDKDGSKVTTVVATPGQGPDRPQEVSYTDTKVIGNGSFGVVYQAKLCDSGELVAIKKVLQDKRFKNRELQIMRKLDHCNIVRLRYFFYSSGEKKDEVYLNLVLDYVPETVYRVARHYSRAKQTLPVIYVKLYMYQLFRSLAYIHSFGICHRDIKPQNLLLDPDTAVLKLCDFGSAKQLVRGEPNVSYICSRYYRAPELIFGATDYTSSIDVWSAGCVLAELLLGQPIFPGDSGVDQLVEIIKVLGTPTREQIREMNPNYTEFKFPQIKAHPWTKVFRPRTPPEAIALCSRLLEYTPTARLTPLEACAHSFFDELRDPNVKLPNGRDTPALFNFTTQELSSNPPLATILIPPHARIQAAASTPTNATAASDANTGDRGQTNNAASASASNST

Structure (SMILES)	IC50 (GSK3β) [nM]	IC50 (cdk5/p25) [nM]
COc1cc(F)ccc1C(O)CN1CC(C)(C)Cn2c1nc(-c1ccncn1)cc2=O (racemic) [Table 1 No. 69, 9-[2-(4-Fluoro-2-methoxy-phenyl)-2-hydroxy-ethyl]-7,7-dimethyl-2-(pyrimidin-4-yl)-6,7,8,9-tetrahydro-pyrimido[1,2-a]pyrimidin-4-one]	4	> 1000
O=c1cc(-c2ccncn2)nc2n1CCCN2C[C@@H](O)c1ccccc1 [Table 1 No. 9, 9-(2(S)-Hydroxy-2-phenyl-ethyl)-2-(pyrimidin-4-yl)-6,7,8,9-tetrahydro-pyrimido[1,2-a]pyrimidin-4-one]	2	490
CC1(C)CN(C[C@@H](O)c2ccccc2)c2nc(-c3ccncn3)cc(=O)n2C1 [Table 1 No. 19, 9-(2(S)-Hydroxy-2-phenyl-ethyl)-7,7-dimethyl-2-(pyrimidin-4-yl)-6,7,8,9-tetrahydro-pyrimido[1,2-a]pyrimidin-4-one]	8	377
Cc1c(-c2ccncn2)nc2n(c1=O)CCCN2CC(=O)c1ccccc1 [Table 1 No. 23, 3-Methyl-9-(2-oxo-2-phenyl-ethyl)-2-(pyrimidin-4-yl)-6,7,8,9-tetrahydro-pyrimido[1,2-a]pyrimidin-4-one]	32	754
O=c1c(Cl)c(-c2ccncn2)nc2n1CCCN2C[C@@H](O)c1ccccc1 [Table 1 No. 24, 3-Chloro-9-(2(S)-hydroxy-2-phenyl-ethyl)-2-(pyrimidin-4-yl)-6,7,8,9-tetrahydro-pyrimido[1,2-a]pyrimidin-4-one]	> 100	833
COc1ccccc1CCN1CC(C)(C)Cn2c1nc(-c1ccncn1)cc2=O [Table 1 No. 47, 9-[2-(2-Methoxy-phenyl)-ethyl]-7,7-dimethyl-2-(pyrimidin-4-yl)-6,7,8,9-tetrahydro-pyrimido[1,2-a]pyrimidin-4-one]	5	> 1000
COc1cc(F)ccc1CCN1CCCn2c1nc(-c1ccncn1)cc2=O [Table 1 No. 91, 9-[2-(4-Fluoro-2-methoxy-phenyl)-ethyl]-2-(pyrimidin-4-yl)-6,7,8,9-tetrahydro-pyrimido[1,2-a]pyrimidin-4-one]	3.5	> 1000
CC1CCn2c(nc(-c3ccncn3)cc2=O)N1C[C@@H](O)c1ccccc1 (stereo partly drawn) [Table 3 No. 7, 9-[2(S)-Hydroxy-2-phenyl-ethyl]-8-methyl-2-(pyrimidin-4-yl)-6,7,8,9-tetrahydro-pyrimido[1,2-a]pyrimidin-4-one]	12	833
CC1(C)CCn2c(nc(-c3ccncn3)cc2=O)N1C[C@@H](O)c1ccccc1 [Table 3 No. 11, 9-[2(S)-Hydroxy-2-phenyl-ethyl]-8,8-dimethyl-2-(pyrimidin-4-yl)-6,7,8,9-tetrahydro-pyrimido[1,2-a]pyrimidin-4-one]	4	1180
CC1(C)CCn2c(nc(-c3ccncn3)cc2=O)N1C[C@@H](O)c1ccc(Cl)cc1 [Table 3 No. 35, 9-[2-(4-Chloro-phenyl)-2(S)-hydroxy-ethyl]-8,8-dimethyl-2-(pyrimidin-4-yl)-6,7,8,9-tetrahydro-pyrimido[1,2-a]pyrimidin-4-one]	2	> 1000
